The test system of series [1] is H1618 cells. The experiment in a line: MTT assay, H1618. Type of series: cell-based. The conditions noted are these: Homo sapiens, 48 h. As to the method: Cell density measurements were performed using a hemocytometer to count reproductive cells resistant to staining with trypan blue. Approximately 20,000 cells were plated into each well of 96-well flat-bottomed micro-titer plates. After 12 h or 24 h incubation at 37° C., medium containing either COH-SR4 (ranging 0-200 μM) or elesclomol (ranging 0-20 μM) were added to the cells. After 24 h, 48 h or 96 h incubation, 20 μL of 5 mg/mL MTT were introduced to each well and incubated for 2 h. The plates were centrifuged and medium was decanted. Cells were subsequently dissolved in 100 μl DMSO with gentle shaking for 2 h at room temperature, followed by measurement of OD570 (91).
The effect of COH-SR4 was first examined in a NCI panel of cancer cell lines, the results of which indicated good activity of COH-SR4 towards lung cancer (FIG. 78A). […] Values are presented as mean±SD from two separate determinations with eight replicates each (n=16) (FIG. 78B). […] Standard colony-forming assay was performed and the colonies were counted using Innotech Alpha Imager HP. […] TUNEL assay was performed using Promega fluorescence detection kit and examined using Zeiss LSM 510 META laser-scanning fluorescence microscope with filters 520 and 620 nm. […]
A general note: Tetrazolium dyes change colour on reduction, which living cells bring about.

The test system of series [2] is PBT003. Description: Glioma ATP viability assay, PBT003. Type of series: cell-based. As to conditions: Table 1; 72 hours. As to the method: Cells of each cell line (U251, U87, PBT-017, PBT018, PBT003 and PBT028) were treated with various concentrations (0˜100 μM) of COH-SR4 for 72 hours. Cell viabilities were determined by ATP viability assays. Data were represented as a ratio to vehicle (DMSO) control, and plotted as mean±SEM (n=12) obtained from 2˜3 experiments (FIG. 34A).
Cells of each cell line (U87, U251, PBT003 and PVT-017) were treated with various concentrations (0˜100 μM) of COH-SR4 for 72 hours. Cell viabilities were determined by ATP viability assays. Data were represented as a ratio to vehicle (DMSO) control, and plotted as mean±SEM (n=12) obtained from 2-3 experiments (FIG. 34B).

Series [3] deals with SK-Mel-2. The experiment in a line: Colony formation assay, SK-Mel-2. Type of series: cell-based, human. As to conditions: 5 μM. As to the method:
(§1) Cell survival was evaluated using a standard colony-forming assay. In total, 1×10^5 cells/mL were incubated with COH-SR4 (1.5 μM or 5 μM) or elesclomol (5 μM) for 24 h, and aliquots of 50 or 100 μL were added to 60 mm size petri dishes, containing 4 mL culture medium. After 7 or 10 days, adherent colonies were fixed, stained with 0.5% methylene blue for 30 min and colonies were counted using the Innotech Alpha Imager HP (91).

Series [4] relates to Stat3, HIF-1α. Description: Stat3 phosphorylation and HIF-1α expression in SKOV3, immunoblotting. Type of series: cell-based, human. The conditions noted are these: SKOV3, 24 hours, 1-10 μM. As for the experimental part: SKOV3 cells were incubated with various concentrations of COH-SR4 (1˜10 μM) for 24 hours. Whole-cell lysates were analyzed by immunoblotting with antibodies against phosphorylated and total form of Stat3, Akt and MAPK, and HIF-1α. GAPDH was used as a loading control.
(In western blotting, separated proteins are transferred to a membrane and probed.)

Series [5] concerns H358 and H520 cells. The experiment in a line: COH-SR4 cytotoxicity after siRNA knock-down of AMPK, XTT. Type of series: cell-based, human. As to the method:
The effects of COH-SR4 on cell viability were assessed in quadruplicate samples using the 2,3-bis (2-methoxy-4-nitro-5-sulfophenly)-5-[(phenylamino) carbonyl]-2H-tetrazolium hydroxide (XTT) assay. Briefly, 20,000 cells were seeded and incubated in 96-well, flat-bottomed plates in 10% FBS-supplemented culture medium 24 h before drug treatment. After 24 h incubation at 37° C., cells were then exposed to the indicated concentrations of drug at 37° C. in 5% CO2 for 48 h. The medium was removed and replaced with 100 μL fresh medium containing 50 μL of the activated-XTT solution to each well, and the cells were further cultured in the CO2 incubator at 37° C. for 4 h. Absorbance was determined on a plate reader at 475 nm.
AMPK was knocked down by siRNA and assessed the impact on COH-SR4-induced cytotoxicity. […] Thus, the in-vitro analyses of critical signaling proteins of cell proliferation further supported the anti-cancer effects of COH-SR4 in lung cancer cells.

Series [6] relates to SKOV3, MADH2744 and A2780 DPPr cells. The experiment in a line: Ovarian cancer cell viability, cellular acid phosphatase activity. Type of series: cell-based, human. The conditions noted are these: 48 hours, 0-10 μM. As to the method: SKOV3 is a cisplatin resistant human ovarian cancer cell line. Human ovarian cancer cells (SKOV3, MADH2744, and […]) were incubated with COH-SR4 at various concentrations (0˜10 μM) or without COH-SR4 for 48 hours. Cells Viabilities were determined by measuring cellular acid phosphatase activities. Data were represented as a ratio to vehicle (DMSO) control.

Series [7] relates to H1618. Description: Colony formation assay, H1618. Type of series: cell-based, human. As to conditions: 1.5 μM. As for the experimental part: as §1
(§2) The effect of COH-SR4 was first examined in a NCI panel of cancer cell lines, the results of which indicated good activity of COH-SR4 towards lung cancer (FIG. 78A). […] Values are presented as mean±SD from two separate determinations with eight replicates each (n=16) (FIG. 78B). The COH-SR4 treatment exerted a significant inhibitory effect on the survival of lung cancer cells [IC50: H1417 cells-1.2±0.2 μM, H1618 cells-1.5±0.2 μM, H358 cells-2.1±0.2 μM and H520 cells-2.4±0.3 μM]. […] Following initial screening for the anticancer activity of COH-SR4, the effect of COH-SR4 on clonogenic potential was studied. Standard colony-forming assay was performed and the colonies were counted using Innotech Alpha Imager HP. […] The effect of COH-SR4 on induction of apoptosis was further investigated. […] TUNEL assay was performed using Promega fluorescence detection kit and examined using Zeiss LSM 510 META laser-scanning fluorescence microscope with filters 520 and 620 nm. […]

The test system of series [8] is lung cancer cell lines. The experiment in a line: TUNEL apoptosis assay, lung cancer cell lines. Type of series: cell-based, human. The conditions noted are these: 1.5 μM, 24 h. As for the experimental part: […] Apoptosis was determined by the labeling of DNA fragments with terminal deoxynucleotidyl-transferase dUTP nick-end labeling (TUNEL) assay using Promega fluorescence apoptosis detection system, and examined using Zeiss LSM 510 META laser scanning fluorescence microscope with filters 520 and 620 nm according to the protocol described previously (91). Photographs taken at identical exposure at ×400 magnification are presented.
as §2

Broadly, the IC50 is the point on the concentration scale where inhibition reaches its midpoint. Lower therefore signals greater potency.

Turning to `O=C(Nc1cc(Cl)cc(Cl)c1)Nc1cc(Cl)cc(Cl)c1` [COH-SR4, 1,3-bis(3,5-dichlorophenyl) urea], the IC50 in series [1] stood at 1500 ± 200 nM; in series [2], 1500 nM. Besides, the figures for the colony formation in series [3] and in series [7] were 48±6% and 48±9%, respectively. In series [4], the “phosphorylation of Stat3 and HIF-1α protein expression” value was “inhibited phosphorylation of Stat3 protein and HIF-1α protein expression”. Moreover, the “cytotoxicity of COH-SR4 after knock-down of AMPK” value in series [5] is given as “significant reversal in the cytotoxicity”. Besides, the “cytotoxicity on regular and cisplatin-resistant ovarian cancer cells” value in series [6] is “dose-dependent cytotoxicity and anti-proliferative effects”. Further, in series [8], the “apoptosis (TUNEL)” value is reported as “induced apoptosis in all the lung cancer cell lines”.

The values above are taken from US9808434B2, “Compound for treating cancer and diabetes” (CITY OF HOPE, priority 2011, dated 2017).
